Test results: PubChem BioAssay (NCI)
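Exposure lasted 48 hours, with cells grown in 96-well plates and compounds tested at five concentrations. TGI: concentration producing complete growth inhibition.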

Legend:
Assay in all cases: DTP human tumour cell line panel, 48 h
HT29 colon = tested on: HT29 colon
SNB-75 CNS = tested on: SNB-75 CNS
SK-MEL-2 melanoma = tested on: SK-MEL-2 melanoma
KM12 colon = tested on: KM12 colon
ACHN renal = tested on: ACHN renal
BT-549 breast = tested on: BT-549 breast
MOLT-4 leukemia = tested on: MOLT-4 leukemia
NCI-H522 lung = tested on: NCI-H522 lung
SK-OV-3 ovarian = tested on: SK-OV-3 ovarian
HCT-15 colon = tested on: HCT-15 colon
RXF 393 renal = tested on: RXF 393 renal
OVCAR-8 ovarian = tested on: OVCAR-8 ovarian
U251 CNS = tested on: U251 CNS
SNB-19 CNS = tested on: SNB-19 CNS
MDA-MB-231 breast = tested on: MDA-MB-231 breast
M14 melanoma = tested on: M14 melanoma
NCI-H460 lung = tested on: NCI-H460 lung
786-0 renal = tested on: 786-0 renal
OVCAR-3 ovarian = tested on: OVCAR-3 ovarian
SN12C renal = tested on: SN12C renal
UACC-257 melanoma = tested on: UACC-257 melanoma
NCI-H226 lung = tested on: NCI-H226 lung
SF-539 CNS = tested on: SF-539 CNS
LOX IMVI melanoma = tested on: LOX IMVI melanoma
DU-145 prostate = tested on: DU-145 prostate
NCI-H23 lung = tested on: NCI-H23 lung
IGROV1 ovarian = tested on: IGROV1 ovarian
K-562 leukemia = tested on: K-562 leukemia
A498 renal = tested on: A498 renal
HS 578T breast = tested on: HS 578T breast
HCC-2998 colon = tested on: HCC-2998 colon
SF-295 CNS = tested on: SF-295 CNS
TK-10 renal = tested on: TK-10 renal
SF-268 CNS = tested on: SF-268 CNS
A549 NSCLC = tested on: A549 NSCLC
OVCAR-5 ovarian = tested on: OVCAR-5 ovarian
HL-60(TB) leukemia = tested on: HL-60(TB) leukemia
UACC-62 melanoma = tested on: UACC-62 melanoma
OVCAR-4 ovarian = tested on: OVCAR-4 ovarian
MCF7 breast = tested on: MCF7 breast
MDA-MB-435 = tested on: MDA-MB-435
SK-MEL-28 melanoma = tested on: SK-MEL-28 melanoma
MDA-N = tested on: MDA-N
PC-3 prostate = tested on: PC-3 prostate
CAKI-1 renal = tested on: CAKI-1 renal
HCT-116 colon = tested on: HCT-116 colon
CCRF-CEM leukemia = tested on: CCRF-CEM leukemia
COLO 205 colon = tested on: COLO 205 colon
SW-620 colon = tested on: SW-620 colon
HOP-62 NSCLC = tested on: HOP-62 NSCLC
SK-MEL-5 melanoma = tested on: SK-MEL-5 melanoma
UO-31 renal = tested on: UO-31 renal
EKVX NSCLC = tested on: EKVX NSCLC

CC(C)=CCC(O)C1=CC(=O)c2c(O)ccc(O)c2C1=O (stereo not drawn)
TGI (HT29 colon): 5.17 µM | TGI (SNB-75 CNS): 11.1 µM | TGI (SK-MEL-2 melanoma): 3.83 µM | TGI (KM12 colon): 16.9 µM | TGI (ACHN renal): 1860 nM | TGI (BT-549 breast): 3.17 µM | TGI (MOLT-4 leukemia): 135 nM | TGI (NCI-H522 lung): 694 nM | TGI (SK-OV-3 ovarian): 24 µM | TGI (HCT-15 colon): 526 nM | TGI (RXF 393 renal): 2110 nM | TGI (OVCAR-8 ovarian): 3.35 µM | TGI (U251 CNS): 4.74 µM | TGI (SNB-19 CNS): 7.78 µM | TGI (MDA-MB-231 breast): 4.71 µM | TGI (M14 melanoma): 2520 nM | TGI (NCI-H460 lung): 7.78 µM | TGI (786-0 renal): 1500 nM | TGI (OVCAR-3 ovarian): 2550 nM | TGI (SN12C renal): 1450 nM | TGI (UACC-257 melanoma): 3.24 µM | TGI (NCI-H226 lung): 2300 nM | TGI (SF-539 CNS): 3.01 µM | TGI (LOX IMVI melanoma): 2630 nM | TGI (DU-145 prostate): 2500 nM | TGI (NCI-H23 lung): 2660 nM | TGI (IGROV1 ovarian): 3.31 µM | TGI (K-562 leukemia): 602 nM | TGI (A498 renal): 4.08 µM | TGI (HS 578T breast): 6.2 µM | TGI (HCC-2998 colon): 3.68 µM | TGI (SF-295 CNS): 9.3 µM | TGI (TK-10 renal): 3.04 µM | TGI (SF-268 CNS): 6.09 µM | TGI (A549 NSCLC): 17.7 µM | TGI (OVCAR-5 ovarian): 3.89 µM | TGI (HL-60(TB) leukemia): 65.9 nM | TGI (UACC-62 melanoma): 3.41 µM | TGI (OVCAR-4 ovarian): 4.84 µM | TGI (MCF7 breast): 2110 nM | TGI (MDA-MB-435): 2820 nM | TGI (SK-MEL-28 melanoma): 2860 nM | TGI (MDA-N): 2300 nM | TGI (PC-3 prostate): 5.17 µM | TGI (CAKI-1 renal): 986 nM | TGI (HCT-116 colon): 2600 nM | TGI (CCRF-CEM leukemia): 399 nM | TGI (COLO 205 colon): 357 nM | TGI (SW-620 colon): 3.3 µM | TGI (HOP-62 NSCLC): 4.95 µM | TGI (SK-MEL-5 melanoma): 1880 nM | TGI (UO-31 renal): 2930 nM | TGI (EKVX NSCLC): 3.02 µM
